Data taken from ChEMBL document CHEMBL1201862, “PubChem BioAssay data set” (2004).
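Step 1: Grow cells in 96-well plates. Step 2: Expose to compound for 48 hours at 5 concentrations. Step 3: Interpolate endpoints linearly; if unreached, use highest concentration. GI50 is the concentration that inhibits growth by half.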 The source made the active and inactive calls. No stated cut-off is given here; in the data, active = GI50 up to about 1.1 µM and inactive = higher.

Legend:
Assay in all cases: NCI-60 cell line screen, 48 h
OVCAR-8 = test system: OVCAR-8
HL-60 = test system: HL-60
SNB-75 = test system: SNB-75
MDA-N = test system: MDA-N
M14 = test system: M14
SK-OV-3 = test system: SK-OV-3
MCF7 = test system: MCF7
IGROV-1 = test system: IGROV-1
NCI-H23 = test system: NCI-H23
A549 = test system: A549
T47D = test system: T47D
HCT-15 = test system: HCT-15
UACC-257 = test system: UACC-257
DU-145 = test system: DU-145
COLO 205 = test system: COLO 205
HOP-62 = test system: HOP-62
HCC 2998 = test system: HCC 2998
UACC-62 = test system: UACC-62
SK-MEL-5 = test system: SK-MEL-5
KM12 = test system: KM12
MDA-MB-231 = test system: MDA-MB-231
Malme-3M = test system: Malme-3M
SN12C = test system: SN12C
HT-29 = test system: HT-29
PC-3 = test system: PC-3
MOLT-4 = test system: MOLT-4
SR = test system: SR
SK-MEL-28 = test system: SK-MEL-28
TK-10 = test system: TK-10
CAKI-1 = test system: CAKI-1
SF-295 = test system: SF-295
CCRF-CEM = test system: CCRF-CEM
SW-620 = test system: SW-620
K562 = test system: K562
RPMI-8226 = test system: RPMI-8226
RXF 393 = test system: RXF 393
EKVX = test system: EKVX
786-0 = test system: 786-0
OVCAR-5 = test system: OVCAR-5
NCI-H226 = test system: NCI-H226
MDA-MB-435 = test system: MDA-MB-435
ACHN = test system: ACHN
SF-268 = test system: SF-268
OVCAR-4 = test system: OVCAR-4
LOX IMVI = test system: LOX IMVI
NCI-H460 = test system: NCI-H460
UO-31 = test system: UO-31
Hs-578T = test system: Hs-578T
HOP-92 = test system: HOP-92
A498 = test system: A498
HCT-116 = test system: HCT-116
SNB-19 = test system: SNB-19
NCI/ADR-RES = test system: NCI/ADR-RES
U-251 = test system: U-251
SF-539 = test system: SF-539

For `Cc1ccc(S(=O)(=O)OC2C(O)C(O)OC2C(c2cc(O)c3c(c2O)C(=O)c2ccccc2C3=O)c2cc(O)c3c(c2O)C(=O)c2ccccc2C3=O)cc1` (centres undefined), the GI50 (OVCAR-8) was 3.44 µM (inactive), the GI50 (HL-60) was 1.87 µM (inactive) and the GI50 (SNB-75) was 4.09 µM (inactive). The GI50 (MDA-N) was 3.61 µM (inactive), the GI50 (M14) was 2.74 µM (inactive) and the GI50 (SK-OV-3) was 6.25 µM (inactive). For the same molecule, the GI50 (MCF7) was 3.44 µM (inactive), the GI50 (IGROV-1) was 7.1 µM (inactive) and the GI50 (NCI-H23) was 2.99 µM (inactive). The GI50 (A549) was 3.54 µM (inactive), the GI50 (T47D) was 5.07 µM (inactive) and the GI50 (HCT-15) was 3.4 µM. The GI50 (UACC-257) was 3.01 µM (inactive), the GI50 (DU-145) was 5.58 µM (inactive) and the GI50 (COLO 205) was 2.2 µM (inactive). For the same molecule, the GI50 (HOP-62) was 4.11 µM (inactive), the GI50 (HCC 2998) was 4.09 µM (inactive) and the GI50 (UACC-62) was 4.38 µM (inactive). The GI50 (SK-MEL-5) was 3.43 µM (inactive), the GI50 (KM12) was 3.42 µM (inactive) and the GI50 (MDA-MB-231) was 4.06 µM (inactive). The GI50 (Malme-3M) was 1.28 µM (inactive), the GI50 (SN12C) was 3.65 µM (inactive) and the GI50 (HT-29) was 5.24 µM (inactive). The GI50 (PC-3) was 2.9 µM (inactive), the GI50 (MOLT-4) was 3.31 µM (inactive) and the GI50 (SR) was 3.08 µM (inactive). The GI50 (SK-MEL-28) was 7.26 µM (inactive), the GI50 (TK-10) was 8.71 µM (inactive) and the GI50 (CAKI-1) was 2.74 µM (inactive). The GI50 (SF-295) was 3.76 µM (inactive), the GI50 (CCRF-CEM) was 3.89 µM (inactive) and the GI50 (SW-620) was 4.65 µM (inactive). The GI50 (K562) was 3.24 µM (inactive), the GI50 (RPMI-8226) was 2.64 µM (inactive) and the GI50 (RXF 393) was 5.36 µM (inactive). For the same molecule, the GI50 (EKVX) was 3.33 µM (inactive) and the GI50 (786-0) was 4.94 µM (inactive).

With `c1ccc(NC2(c3nnnn3C3CCCCC3)CCNCC2)cc1` the GI50 (OVCAR-5) was 14.9 µM (inactive), the GI50 (OVCAR-8) was 28.6 µM (inactive) and the GI50 (HL-60) was 14.1 µM (inactive). The GI50 (SNB-75) was 14.9 µM (inactive), the GI50 (NCI-H226) was 17.9 µM (inactive) and the GI50 (M14) was 17.6 µM (inactive). For the same molecule, the GI50 (SK-OV-3) was 26 µM (inactive), the GI50 (MCF7) was 18.5 µM (inactive) and the GI50 (MDA-MB-435) was 19.4 µM (inactive). The GI50 (IGROV-1) was 32.7 µM (inactive), the GI50 (NCI-H23) was 23.8 µM (inactive) and the GI50 (A549) was 32.4 µM (inactive). For the same molecule, the GI50 (T47D) was 23.1 µM (inactive), the GI50 (ACHN) was 20.1 µM (inactive) and the GI50 (HCT-15) was 21.2 µM. For the same molecule, the GI50 (UACC-257) was 15.7 µM (inactive), the GI50 (DU-145) was 37 µM (inactive) and the GI50 (COLO 205) was 19.8 µM (inactive). For the same molecule, the GI50 (HOP-62) was 15.9 µM (inactive), the GI50 (SF-268) was 39.6 µM (inactive) and the GI50 (HCC 2998) was 11.7 µM (inactive). The GI50 (UACC-62) was 18.3 µM (inactive), the GI50 (OVCAR-4) was 49.8 µM (inactive) and the GI50 (LOX IMVI) was 15.7 µM (inactive). The GI50 (SK-MEL-5) was 19.5 µM (inactive), the GI50 (KM12) was 15.3 µM (inactive) and the GI50 (MDA-MB-231) was 39.6 µM (inactive). For the same molecule, the GI50 (Malme-3M) was 17.1 µM (inactive), the GI50 (SN12C) was 36.6 µM (inactive) and the GI50 (HT-29) was 16.7 µM (inactive). For the same molecule, the GI50 (MOLT-4) was 18.2 µM (inactive), the GI50 (SR) was 17.5 µM (inactive) and the GI50 (SK-MEL-28) was 17.9 µM (inactive). For the same molecule, the GI50 (NCI-H460) was 15.2 µM (inactive), the GI50 (TK-10) was 16.8 µM (inactive) and the GI50 (SF-295) was 17.9 µM (inactive). The GI50 (UO-31) was 11.9 µM (inactive), the GI50 (Hs-578T) was 14.1 µM (inactive) and the GI50 (CCRF-CEM) was 20.4 µM (inactive). The GI50 (HOP-92) was 6.01 µM (inactive), the GI50 (A498) was 18 µM (inactive) and the GI50 (SW-620) was 22.2 µM (inactive). For the same molecule, the GI50 (HCT-116) was 15.2 µM (inactive), the GI50 (SNB-19) was 17.5 µM (inactive) and the GI50 (RPMI-8226) was 22.9 µM (inactive). The GI50 (NCI/ADR-RES) was 66.5 µM (inactive), the GI50 (U-251) was 16.6 µM (inactive) and the GI50 (RXF 393) was > 10 µM (inactive). The GI50 (SF-539) was 15.6 µM (inactive), the GI50 (EKVX) was 20.7 µM (inactive) and the GI50 (786-0) was 15 µM (inactive).
